According to US20130296358A1, “3-SPIROCYCLIC PIPERIDINE DERIVATIVES AS GHRELIN RECEPTOR AGONISTS” (priority 2012, published 2013):

Legend:
rat fundus = experiment: Rat fundus contractility assay (EFS-induced contraction of muscle strips); conditions: for EC50: increase of EFS-induced contraction, mean of preparations from at least 3 animals; for Emax / Emax/%: relative to the response to ghrelin (100 nM), defined as 100%
Experimental: Male Sprague Dawley rats (180-250 g) were culled by cervical dislocation and the fundus was removed. Each fundus was placed on a Krebs Henseleit (KH) buffer soaked dissection dish and cut along the long curvature to form a flattened sheet that was pinned in each corner. Four adjacent longitudinal strips (10×3 mm) were cut and the mucosa removed by sharp dissection. Each muscle strip was mounted in a 10 ml organ bath containing oxygenated KH at 37° C. Each strip was connected to an isometric force transducer, calibrated initially using a 5 g weight. The signal (g tension) was amplified and responses recorded by a Powerlab data capture system, connected to a computer running Labchart software (version 5.0). Tissues were placed under 1 g tension for an equilibration period of 30 min or until the baseline tension had stabilised. Carbachol (CCh, 100 nM) was then administered to establish the maximum contractile response of each preparation. Tissues were washed thoroughly and left for 30 min to re-equilibrate. Next, the muscle strips underwent electrical field stimulation (EFS). Maximal EFS pulse trains of 12V, 5 Hz, 0.1 msec pulse width, for 2 sec every 60 sec were applied until consistent electrically-stimulated phasic contractions were recorded. The voltage was then reduced in 1V increments until a consistent submaximal (EC50-75) EFS response was observed. Ghrelin (100 nM) was administered and left until a maximum response was obtained. Tissues were then washed thoroughly and left for 30 min. Once the EFS-induced contraction had re-stabilised, cumulative additions (10 nM-10 μM) of each test compound were administered. Individual responses were calculated by determining the peak of the EFS-induced contraction minus the baseline. […] The mean EC50 value for compounds was generated from data obtained on stomach preparations from at least 3 different animals.

[1] = biological target: T1, human recombinant ghrelin receptor (GHS-R1a) (Homo sapiens, UniProt Q92847); experiment: Calcium assay, CHO-K1 cells expressing hGHS-R1a (Fluo-4); assay type: cell-based; conditions: for Emax: CHO-K1, relative to the Emax induced by MK-0677 (defined as 100%), read-out: hGHS-R1a Ca assay Emax/%
T1 construct: host or cells: CHO-K1
Experimental: (§1) Chinese hamster ovary (CHO-K1) cells expressing human recombinant ghrelin receptor (GHS-R1a) were purchased from Euroscreen (ES-410-C) and propagated in UltraCHO medium containing glutamine and supplemented with 1% heat inactivated foetal calf serum (FCS), 100 U/ml penicillin, 100 mg/l streptomycin and 0.8 g/l geneticin. Cells were sub-cultured twice a week with a 1:10 dilution. For passaging, cells were washed with 1× DPBS without calcium and magnesium, trypsinised for 10 min with 0.05% Trypsin/EDTA and resuspended in cell culture medium.
Cells were diluted to achieve 1×10^6 cells/ml, seeded in 384-well black clear bottom CellBind plates at 25000 cells/well (25u1) and incubated overnight at 37° C./5% CO2 Cells were expected to be 85-90% confluent on the day of assay (checked under the microscope) to ensure a high quality assay. Media was manually removed and 40 μl of loading solution containing probenecid and Fluo-4 no wash dye (a calcium indicator, Invitrogen F36206) were added to each well. After 30 min at 37° C. followed by another 30 min at RT, cpds were added to the wells. To generate a dose response up to 30 μM, 10 mM compound stocks in 100% (v/v) DMSO were firstly diluted in 50% (v/v) DMSO. Then, serial dilutions aimed at a full logarithmic dose responses (8 point) were performed in assay buffer [1×HBSS, 20 mM Hepes, 0.1% (w/v) BSA] to give 2.5% (v/v) DMSO and 5× final compound concentrations. The final assay DMSO concentration was 0.5% (v/v). After loading the cells with Fluo-4 containing solution, plates were read on a CeIlLux instrument (Perkin Elmer). A protocol set up to add 10 μl of 5× compound and to read the plate for 60sec after adding the compound at 17th sec was used. Fluorescence excitation took place at 494 nm and emission at 516 nm. EC50 values of agonists were calculated by fitting the percent stimulation over background [(Max-Min)/Min] using the nonlinear logistic function of the Prism 5 software (GraphPad, USA).

[2] = biological target: T1, human recombinant ghrelin receptor (GHS-R1a); experiment: cAMP assay (HTRF), CHO-hGHS-R1a cells; assay type: cell-based; conditions: for Emax / hGHS-R1a cAMP assay Emax/%: relative to the ghrelin response (defined as 100%)
Experimental: as §1
The Homogeneous Time-Resolved Fluorescence (HTRF) cAMP dynamic 2 kit (Cisbio International, France) was used as follows. CHO-hGHS—R1a or CHO-rGHS—R1a cells were seeded in a volume of 25 μl culture media at 10,000 cells/well (400,000 cells/ml) in Greiner white 384-well high volume plates and incubated overnight (18-24 h) at 37° C./5% CO2. Then, media was removed and 6 μl assay buffer [HBSS, 10 mM Hepes, 0.2% (w/v) BSA, 1.7 mM IBMX, (pH7.4)] were added to the wells. To generate a dose response up to 30 μM, 10 mM compound stocks in 100% (v/v) DMSO were firstly diluted in 50% (v/v) DMSO followed by a further dilution into assay buffer. Then, 4 μl of 2.5× compound (dose response as 9 point log serial dilution in assay buffer from 30 μM as maximum concentration) were added to each well achieving a final DMSO assay concentration of 0.8% (v/v). 0.1 μM forskolin was added as positive control. After 30 min (rGHS—R1a cell line) or 60 min (hGHS—R1a cell line) incubation at 37° C./5% CO2, 5 μl of cAMP-d2 and 5 μl of anti-cAMP antibody-cryptate, (both made in lysis buffer), were added to the plate followed by 1 h incubation at RT. During this time, cAMP produced by the cells competed with cAMP-d2 for the anti-cAMP antibody-cryptate molecule. Then, the plate was read on the Pherastar instrument (BMG, Germany) at two different emission wavelengths ([…]). Increasing levels of endogenous cAMP produced by cells could be followed by a decrease of FRET fluorescent signal and viceversa. Values represented by a change in arbitrary fluorescence ratios (665/620) were converted into cAMP concentrations by using a standard curve, the reagents for which were supplied with the kit. EC50 values of agonists were calculated using the nonlinear logistic function of the Prism 5 software (GraphPad, USA). Emax were expressed as relative values of the ghrelin response, which was defined as 100%.

T1 sequence (Q92847 whole entry): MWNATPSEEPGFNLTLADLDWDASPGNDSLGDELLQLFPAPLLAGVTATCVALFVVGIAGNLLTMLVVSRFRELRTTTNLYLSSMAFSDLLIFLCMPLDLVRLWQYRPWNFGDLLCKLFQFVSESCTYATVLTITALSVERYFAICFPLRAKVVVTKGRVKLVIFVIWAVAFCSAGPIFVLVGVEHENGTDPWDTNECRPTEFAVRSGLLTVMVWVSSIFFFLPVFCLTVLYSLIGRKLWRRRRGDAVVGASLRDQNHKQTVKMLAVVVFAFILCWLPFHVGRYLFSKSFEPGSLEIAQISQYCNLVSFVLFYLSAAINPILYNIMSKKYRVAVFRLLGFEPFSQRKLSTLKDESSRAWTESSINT

EC50 (rat fundus; Rattus norvegicus) [nM]	Emax [1] [%]	Emax [2] [%]	SMILES	Emax (rat fundus; Rattus norvegicus) [%]	also measured
1700	97	130	CN1C[C@H](c2ccccc2)[C@]2(CCCN(C(=O)[C@@H](COCc3ccccc3)NC(=O)C(C)(C)N)C2)C1=O (single isomer, unassigned) [Example 1.0(i)]	104	
13	100	141	CN1C[C@@H](c2ccccc2)[C@@]2(CCCN(C(=O)[C@@H](COCc3ccccc3)NC(=O)C(C)(C)N)C2)C1=O (single isomer, unassigned) [Example 1.0(ii)]	66	
	99		CN1CC(c2ccccc2)C2(CCCN(C(=O)[C@@H](COCc3ccccc3)NC(=O)C(C)(C)N)C2)C1=O (single isomer, unassigned) [Example 1.20]		EC50 (rat fundus): 393 nM; Emax/% (rat fundus): 39%; hGHS-R1a cAMP assay Emax/% [2]: 169%
	101	129	CN1CC(c2ccccc2)C2(CCN(C(=O)[C@@H](COCc3ccccc3)NC(=O)C(C)(C)N)C2)C1=O (single isomer, unassigned) [Example 8.0]		EC50 ([1]; CHO-K1 cells expressing hGHS-R1a, read-out: hGHS-R1a Ca assay EC50/μM): 0.0046 µM; EC50 ([2]; CHO-hGHS-R1a cells, 60 min incubation, maximum concentration 30 μM): 2.38 µM
	96	127	CN1CC(c2ccccc2)C2(CCCN(C(=O)[C@@H](COCc3ccccc3)NC(=O)C(C)(C)N)CC2)C1=O (single isomer, unassigned) [Example 9.0(iv)]		

Further lines, the compound ahead of its results:

SMILES	EC50 (rat fundus; Rattus norvegicus) [nM]	Emax [1] [%]	Emax [2] [%]	Emax (rat fundus; Rattus norvegicus) [%]	also measured
CC(C)N1CC(c2ccccc2)C2(CCCN(C(=O)[C@@H](COCc3ccccc3)NC(=O)C(C)(C)N)C2)C1=O (single isomer, unassigned) [Example 1.5]		96	195	80	EC50 (rat fundus): 35 nM
CN1CC(c2ccc(F)cc2)C2(CCCN(C(=O)[C@@H](Cc3c[nH]c4ccccc34)NC(=O)C(C)(C)N)C2)C1=O (single isomer, unassigned) [Example 1.11]	24	102	289	99	
CC(C)N1CC(c2ccc(F)cc2)C2(CCCN(C(=O)[C@@H](Cc3cn(C)c4ccccc34)NC(=O)C(C)(C)N)C2)C1=O (single isomer, unassigned) [Example 1.15]	36	112	331	123	
CN(C)C(=O)CN1CC(c2ccccc2)C2(CCCN(C(=O)[C@@H](COCc3ccccc3)NC(=O)C(C)(C)N)C2)C1=O (single isomer, unassigned) [Example 1.16]	13	101	210	124	
CNC(C)(C)C(=O)N[C@H](COCc1ccccc1)C(=O)N1CCCC2(C1)C(=O)N(C)CC2c1ccccc1 (single isomer, unassigned) [Example 1.17]	137	107	124	113	
CN1CC(c2ccccc2)C2(CCCN(C(=O)[C@@H](COCc3ccccc3)NC(=O)C(C)(C)N)C2)C1=O (single isomer, unassigned) [Example 1.21]					EC50 (rat fundus): 84 nM; Emax/% (rat fundus): 81%; hGHS-R1a Ca assay Emax/% ([1]; relative to the Emax induced by MK-0677 (defined as 100%)): 105%; hGHS-R1a cAMP assay Emax/% [2]: 122%
Cc1ccc(COC[C@@H](NC(=O)C(C)(C)N)C(=O)N2CCCC3(C2)C(=O)N(C)CC3c2ccc(F)cc2)cc1 (single isomer, unassigned) [Example 1.29]	48	102	243	100	
CN1CC(c2ccccc2)C2(CCCN(C(=O)[C@@H](CCCc3ccccc3)NC(=O)C(C)(C)N)C2)C1=O (single isomer, unassigned) [Example 1.32]		103	176		EC50 (rat fundus): 19 nM; Emax/% (rat fundus): 109%
CCC(N)(CC)C(=O)N[C@H](COCc1ccccc1)C(=O)N1CCC[C@@]2(C1)C(=O)N(C)C[C@H]2c1ccccc1 [Example 1.71, 2-amino-N-((R)-3-(benzyloxy)-1-((4S,5R)-2-methyl-1-oxo-4-phenyl-2,7-diazaspiro[4.5]decan-7-yl)-1-oxopropan-2-yl)-2-ethylbutanamide]		108	111		
Cc1ccc(COC[C@@H](NC(=O)C(C)(C)N)C(=O)N2CCCC3(C2)C(=O)N(C)CC3c2ccc(F)cc2)cc1 (stereo partly drawn) [Example 1.72, 2-amino-N-((2R)-1-(4-(4-fluorophenyl)-2-methyl-1-oxo-2,7-diazaspiro[4.5]decan-7-yl)-3-((4-methylbenzyl)oxy)-1-oxopropan-2-yl)-2-methylpropanamide]		110	147		
CN1CC(c2ccccc2)C2(CCCN(C(=O)[C@@H](COCc3ccccc3)NC(=O)C(C)(N)C(F)(F)F)C2)C1=O (stereo partly drawn) [Example 1.73, 2-amino-N-((2R)-3-(benzyloxy)-1-(2-methyl-1-oxo-4-phenyl-2,7-diazaspiro[4.5]decan-7-yl)-1-oxopropan-2-yl)-3,3,3-trifluoro-2-methylpropanamide]		79	1		
COc1ccc(C2CN(C)C(=O)C23CCCN(C(=O)[C@@H](COCc2ccccc2)NC(=O)C(C)(C)N)C3)cc1 (stereo partly drawn) [Example 1.74, 2-amino-N-((2R)-3-(benzyloxy)-1-(4-(4-methoxyphenyl)-2-methyl-1-oxo-2,7-diazaspiro[4.5]decan-7-yl)-1-oxopropan-2-yl)-2-methylpropanamide]		103	123		
CC(C)(C)CN1CC(c2ccccc2)C2(CCCN(C(=O)[C@@H](COCc3ccccc3)NC(=O)C(C)(C)N)C2)C1=O (stereo partly drawn) [Example 1.75, 2-amino-N-((2R)-3-(benzyloxy)-1-(2-neopentyl-1-oxo-4-phenyl-2,7-diazaspiro[4.5]decan-7-yl)-1-oxopropan-2-yl)-2-methylpropanamide]		87	176		
